PMC8780658 (Pharmaceutics, 2021)
Where a SMILES comes first, the peptide text is derived from it. The star is where a group is joined. Doxorubicin(3'-N) = COc1cccc2c1C(=O)c1c(O)c3c(c(O)c1C2=O)C[C@@](O)(C(=O)CO)C[C@@H]3O[C@H]1C[C@H](N*)[C@H](O)[C@H](C)O1; Propanoyl(3-maleimido) = O=C1C=CC(=O)N1CCC(=O)*; PEG2 = NCCOCCOCCC(=O)O

What was measured:
MDA-MB231 tumor [1] = assay: Biodistribution in breast tumor models (NIRF imaging)
Protocol: The biodistribution of Al-ProD was assessed in breast tumor models, which were prepared by subcutaneous inoculation of 1 × 10^7 MBA-MB231 cells into the left flank of BALB/c nude mice. […] Then, noninvasive near-infrared fluorescence (NIRF) imaging was performed using an IVIS Lumina Series III system after 0 h, 3 h, 6 h, 12 h, 24 h, 48 h, and 72 h of injection. Fluorescence intensities in tumor regions were quantified via Living Image software. Mice were sacrificed after 12 h of injection for ex vivo imaging, followed by the collection of lung, liver, kidney, spleen, heart, and tumor tissues. Tumor tissues were also cut into 10 µm thick sections for histological assays. Slide-mounted tumor sections were analyzed by Leica TCS SP8 confocal laser-scanning microscope.

[2] = Pharmacokinetics after intravenous injection; format: in vivo; details: BALB/c nude mice, i.v.
Protocol: Mice were bred under pathogen-free conditions at the Korea Institute of Science and Technology (KIST). All experiments with live animals were performed in compliance with the relevant laws and institutional guidelines of Institutional Animal Care and Use Committee (IACUC) in Korea Institute of Science and Technology (KIST), and IACUC approved the experiment (approved number of 2020-123). […] Then, each drug in the blood samples was extracted with DMSO by intense vortex and the samples were centrifuged at 2000 rpm for 40 min to obtain as a blood plasma. Finally, amount of free DOX and Al-ProD in samples was analyzed by IVIS Lumina Series III system (PerkinElmer; Waltham, MA, USA).

MDA-MB231 tumor [3] = assay: Antitumor efficacy in MDA-MB231 tumor-bearing mice; format: in vivo, BALB/c nude mice; details: 3 mg/kg based on DOX contents, once every three days; saline group 1810.98 ± 544.56 mm^3
Protocol: (§1) Antitumor efficacy was assessed by measuring tumor volumes once every two days, calculated as largest diameter × smallest diameter^2 × 0.53, once every 2 days. The body weights of mice were also measured once every two days to assess in vivo toxicity. The in vivo toxicity of Al-ProD was further assessed by histological analyses. At 20 days after treatment, major organs were collected from mice and samples were stained with H&E following the manufacturer’s protocol. Then, organ sections were observed using an optical microscope.

[4] = In vivo toxicity evaluation in MDA-MB231 tumor-bearing mice
Protocol: as §1

H9C2 cells = assay: Cellular uptake, confocal fluorescence imaging; format: cell-based, rat; details: 2 µM, 48 h, 37 °C, CLSM
Protocol: (§2) To assess intracellular behavior of Al-ProD via fluorescence imaging, 3 × 10^5 MDA-MB231 and H9C2 cells were seeded in confocal dishes. […] As a control, MDA-MB231 cells were pre-incubated for 2 h with cathepsin B-inhibitory siRNA that was pre-incubated with Lipofectamine 2000 for 40 min at room temperature. Then, cells were washed twice with DPBS, fixed with 5% paraformaldehyde for 15 min, and stained with 4′,6-diamidino-2-phenylindole (DAPI) for 10 min. Fluorescence imaging was performed using a Leica TCS SP8 confocal laser-scanning microscope (Leica Microsystems GmbH; Wetzlar, Germany). The DOX fluorescence in images was quantitatively analyzed using an Image Pro software (Media Cybernetic, Rockville, MD, USA).

[5] = biological target: T1, bovine serum albumin (BSA) (Bos taurus, UniProt P02769); assay: Albumin binding of Al-ProD, SDS-PAGE band shift; details: 100 µM compound, 700 µM albumin in PBS pH 7.4, room temperature, 1 h; native 12% SDS-PAGE, trans-UV; unbound band below 7 kDa
T1 construct: purchased Sigma Aldrich
T1 sequence (P02769 25-607): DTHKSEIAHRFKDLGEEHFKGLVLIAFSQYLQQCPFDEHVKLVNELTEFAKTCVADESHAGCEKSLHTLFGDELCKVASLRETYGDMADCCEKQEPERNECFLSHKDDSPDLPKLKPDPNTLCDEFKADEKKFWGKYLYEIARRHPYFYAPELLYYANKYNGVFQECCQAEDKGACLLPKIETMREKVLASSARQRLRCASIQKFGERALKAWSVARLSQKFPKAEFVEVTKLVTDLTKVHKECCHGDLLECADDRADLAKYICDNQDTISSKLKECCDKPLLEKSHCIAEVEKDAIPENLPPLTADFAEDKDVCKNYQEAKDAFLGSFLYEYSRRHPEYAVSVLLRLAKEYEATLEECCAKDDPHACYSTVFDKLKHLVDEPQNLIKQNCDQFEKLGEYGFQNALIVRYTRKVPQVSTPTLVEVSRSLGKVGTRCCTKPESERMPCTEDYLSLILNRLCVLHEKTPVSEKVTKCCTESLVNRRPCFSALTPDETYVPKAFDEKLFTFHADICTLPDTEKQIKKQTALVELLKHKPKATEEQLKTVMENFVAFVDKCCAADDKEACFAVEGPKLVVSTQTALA
Protocol: (§3) The albumin-binding property of Al-ProD was firstly evaluated. Briefly, to a human serum albumin (HSA), mouse serum albumin (MSA), or bovine serum albumin (BSA; 700 µM in PBS; pH 7.4), Al-ProD (100 µM) was added and incubated for 0, 5, and 60 min at room temperature. As a control, the HSA solution was pre-incubated with γ-maleimidobutyric acid for 1 h before adding Al-ProD. After incubation, samples were analyzed via native 12% SDS-PAGE gel. The gels were observed by trans-UV using the iBright^TM Imaging System (Invitrogen by Thermo Fisher Scientiric), and then stained with coomassie blue for visualizing proteins. The albumin-binding property of Al-ProD was further analyzed using reverse-phased high performance liquid chromatography (RP-HPLC; […]; Agilent Technologies) with ACN/H2O gradient from 80:20 to 20:80 for 30 min under a fluorescence detector (Ex/Em: 530/590 nm). […] Next, cathepsin B-specific cleavage of Al-ProD that was pre-incubated with HSA for 5 min (HSA-bound Al-ProD; 10 µM) was assessed by incubating with cathepsin B, cathepsin E, cathepsin D, cathepsin L, caspase-9, or caspase-3 (50 µg) at 37 °C for 24 h, followed by an analysis using HPLC with ACN/H2O gradient from 20:80 to 80:20 for 30 min.

[6] = biological target: T2, mouse serum albumin (MSA) (Mus musculus, UniProt P07724); assay: Albumin binding of Al-ProD, SDS-PAGE band shift; details: 100 µM compound, 700 µM albumin in PBS pH 7.4, room temperature, 1 h; native 12% SDS-PAGE, trans-UV; unbound band below 7 kDa
T2 construct: purchased Sigma Aldrich
T2 sequence (P07724 25-608): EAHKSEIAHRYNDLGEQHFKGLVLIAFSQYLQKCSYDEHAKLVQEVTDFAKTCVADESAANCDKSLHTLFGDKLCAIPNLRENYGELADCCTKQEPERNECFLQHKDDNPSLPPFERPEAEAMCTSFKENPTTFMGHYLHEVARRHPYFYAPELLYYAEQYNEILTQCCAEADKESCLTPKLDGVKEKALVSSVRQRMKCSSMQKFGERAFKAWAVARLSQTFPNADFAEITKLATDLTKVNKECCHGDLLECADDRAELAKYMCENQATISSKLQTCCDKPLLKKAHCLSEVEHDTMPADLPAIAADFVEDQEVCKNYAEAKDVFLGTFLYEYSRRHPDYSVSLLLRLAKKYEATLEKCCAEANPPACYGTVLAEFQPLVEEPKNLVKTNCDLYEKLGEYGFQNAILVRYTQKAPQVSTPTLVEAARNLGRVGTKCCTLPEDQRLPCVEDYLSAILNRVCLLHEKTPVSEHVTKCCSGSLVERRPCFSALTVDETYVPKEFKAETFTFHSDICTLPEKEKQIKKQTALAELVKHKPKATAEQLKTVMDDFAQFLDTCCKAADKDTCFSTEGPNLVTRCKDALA
Protocol: as §3

MDA-MB231 cells = assay: Cellular uptake, confocal fluorescence imaging; format: cell-based, human; details: 2 µM, 48 h, 37 °C, CLSM
Protocol: as §2

[7] = 3 mg/kg based on DOX contents, once every three days
[8] = 12 h after i.v. injection, 3 mg/kg based on DOX contents

Row | SMILES | Course of DOX fluorescence in tumor tissues (MDA-MB231 tumor [1]; mouse, in vivo, iv, 3 mg/kg) | DOX fluorescence in whole tumor tissue sections (histology) (MDA-MB231 tumor [1]; mouse, in vivo, iv, 3 mg/kg) | In vivo half-life, T1/2 ([2]; 3 mg/kg based on DOX contents, plasma fluorescence by IVIS) | In vivo half-life ([2]; 3 mg/kg, plasma fluorescence by IVIS) | Tumor volume on day 20 after treatment (MDA-MB231 tumor [3]) | Mice survival during treatment [4, 7] | Median survival ([4]; 3 mg/kg once every three days, saline group 20 days) | Normal organs stained with H&E ([4]; mouse, in vivo) | Intracellular location of DOX fluorescence in H9C2 cells (H9C2 cells) | Band in SDS-PAGE gel after incubation with BSA (albumin binding) [5] | Band in SDS-PAGE gel after incubation with MSA (albumin binding) [6] | Intracellular location of DOX fluorescence in MDA-MB231 cells (MDA-MB231 cells) | DOX fluorescence from tumor tissues relative to free DOX, NIRF imaging (MDA-MB231 tumor [1]; [8]) | DOX fluorescence in tumor tissues relative to free DOX group, ex vivo imaging (MDA-MB231 tumor [1]; [8]) | DOX fluorescence in whole tumor tissue sections (histology) (MDA-MB231 tumor [1]; 12 h after i.v. injection, 3 mg/kg based on DOX contents, confocal microscopy) | Time for which DOX fluorescence was retained in tumor tissues (MDA-MB231 tumor [1]; NIRF imaging, i.v., 3 mg/kg based on DOX contents) | AUC increase compared with free DOX ([2]; 3 mg/kg based on DOX contents) | Time for which a detectable amount remained in the body ([2]; 3 mg/kg based on DOX contents) | Body weights during treatment [4, 7] | Normal organs stained with H&E ([4]; day 20 after treatment)
1 | COc1cccc2c1C(=O)c1c(O)c3c(c(O)c1C2=O)C[C@@](O)(C(=O)CO)C[C@@H]3O[C@H]1C[C@H](N)[C@H](O)[C@H](C)O1 [free DOX, doxorubicin] | rapidly decreased for 6 h | only a small quantity | 15 min | 15 min | 580.25 ± 139.92 mm^3 | ≤ 18 days | 16 days | structural abnormalities | clearly observed at the nuclei | not bound | not bound | clearly observed at the nuclei |  |  |  |  |  |  |  | 
2 | COc1cccc2c1C(=O)c1c(O)c3c(c(O)c1C2=O)C[C@@](O)(C(=O)CO)C[C@@H]3O[C@H]1C[C@H](NC(=O)CNC(=O)[C@H](CCCNC(=N)N)NC(=O)[C@H](CCCNC(=N)N)NC(=O)[C@H](Cc2ccccc2)NC(=O)CCOCCOCCNC(=O)CCN2C(=O)C=CC2=O)[C@H](O)[C@H](C)O1 [Al-ProD, maleimide-PEG2-FRRG-DOX] ({Propanoyl(3-maleimido)-PEG2}-FRRG-{Doxorubicin(3'-N)}) |  |  |  |  |  | over 25 days |  |  |  |  |  |  | 3.33–4.08 fold | 3.41–4.92 fold | strong DOX fluorescence | 72 h | approximately sevenfold | 144 h | no significant body weight loss | negligible toxicity
